{
  "source": "paper PMC3465505",
  "about": "(Antiviral research, 2012)",
  "key": {"SV40 TAg ATPase activity": {"target": "SV40 TAg ATPase activity (Simian virus 40, UniProt P03070)", "sequence (P03070 whole entry)": "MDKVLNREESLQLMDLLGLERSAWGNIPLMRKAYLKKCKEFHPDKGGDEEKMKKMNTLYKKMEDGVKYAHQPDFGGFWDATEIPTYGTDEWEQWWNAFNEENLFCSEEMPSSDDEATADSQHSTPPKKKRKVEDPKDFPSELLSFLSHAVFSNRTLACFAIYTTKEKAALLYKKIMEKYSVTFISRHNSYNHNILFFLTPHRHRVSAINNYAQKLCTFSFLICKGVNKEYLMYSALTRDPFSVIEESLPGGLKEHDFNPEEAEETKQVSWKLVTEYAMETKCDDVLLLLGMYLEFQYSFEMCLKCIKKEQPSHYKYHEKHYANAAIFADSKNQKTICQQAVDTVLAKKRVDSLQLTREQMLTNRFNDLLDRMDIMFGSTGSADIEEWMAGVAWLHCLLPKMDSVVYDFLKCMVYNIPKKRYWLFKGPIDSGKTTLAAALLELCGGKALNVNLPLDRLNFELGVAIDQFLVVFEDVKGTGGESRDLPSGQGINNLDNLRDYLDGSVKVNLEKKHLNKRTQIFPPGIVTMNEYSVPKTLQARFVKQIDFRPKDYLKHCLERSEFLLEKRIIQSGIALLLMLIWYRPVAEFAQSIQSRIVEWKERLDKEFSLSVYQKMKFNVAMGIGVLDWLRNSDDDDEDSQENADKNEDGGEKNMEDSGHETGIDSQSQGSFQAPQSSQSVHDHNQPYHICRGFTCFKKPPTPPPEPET", "experiment": "biochemical", "type": "biochemical", "conditions": "for inhibition of TAg ATPase activity (SAR screen): 30 μM compound; for potency of TAg ATPase inhibition compared with MAL2-11B: 100 μM compound; for inhibition at 3 µM: read-out: inhibition of TAg ATPase activity; for inhibition at 30 µM: read-out: inhibition of the ATPase activity of TAg"}, "SV40 [1]": {"system": "SV40", "experiment": "SV40 DNA replication by qPCR in CV1 cells", "type": "cell-based, Simian Virus 40", "conditions": "48 hpi; for inhibition of DNA replication: 30 μM"}, "SV40 [2]": {"system": "SV40", "experiment": "SV40 plaque assay in CV1 cells", "type": "cell-based, Simian Virus 40", "conditions": "2 days; for inhibition of viral replication relative to the DMSO control (plaque assay): 30 μM"}, "CV1 cells": {"system": "CV1 cells", "experiment": "MTS viability assay", "type": "cell-based, monkey", "conditions": "CV1 cells ~90% confluency, 48 h"}, "SV40 TAg [3]": {"target": "T1, SV40 TAg (Simian virus 40, UniProt P03070)", "T1 sequence (P03070 whole entry)": "as above", "type": "biochemical"}, "BKV": {"system": "BKV", "experiment": "BKV DNA replication by qPCR in Vero cells", "type": "cell-based, BK virus", "conditions": "10 μM, 5 d"}, "SV40 TAg [4]": {"target": "T1, SV40 TAg", "experiment": "TAg aggregation under ATPase assay conditions", "conditions": "utilized ATPase assay conditions"}, "[5]": {"conditions": "TAg in the presence of 3 μM compound"}},
  "note": "Where two headings read alike, the source gives them in different places. Marks after values point to notes of the source that are not given here.",
  "data": [
    {"smiles": "Oc1c(Br)cc(Cl)cc1Cc1cc(Cl)cc(Br)c1O", "note": "[6,6'-methylenebis(2-bromo-4-chlorophenol)]", "values": [
      {"measurement": "inhibition of TAg ATPase activity (SAR screen)", "setting": "SV40 TAg ATPase activity", "value": "inhibited TAg ATPase activity"}
    ]},
    {"smiles": "CC1=C(C(=O)OCc2ccccc2)C(c2ccc(-c3ccccc3)cc2)NC(=O)N1CCCCCC(=O)O", "note": "(stereo not drawn) [MAL2-11B]", "values": [
      {"measurement": "inhibition of DNA replication in culture", "setting": "SV40 [1]; 100 μM", "value": "~ 60%"},
      {"measurement": "reduction of the number of plaques", "setting": "SV40 [2]; 100 μM", "value": "~60", "unit": "%"}
    ]},
    {"smiles": "Oc1c(Cl)cc(Cl)cc1Sc1cc(Cl)cc(Cl)c1O", "note": "[bithionol, Bithionol]", "values": [
      {"measurement": "inhibition of DNA replication", "setting": "SV40 [1]", "value": "~ 100 fold"},
      {"measurement": "MI50 (metabolic index-50)", "setting": "CV1 cells", "value": 68, "unit": "µM"},
      {"measurement": "potency of TAg ATPase inhibition compared with MAL2-11B", "setting": "SV40 TAg ATPase activity", "value": "significantly more potent inhibitors than MAL2-11B"},
      {"measurement": "inhibition at 3 µM", "setting": "SV40 TAg ATPase activity", "value": "~50", "unit": "%"},
      {"measurement": "inhibition at 30 µM", "setting": "SV40 TAg ATPase activity", "value": "~80", "unit": "%"},
      {"measurement": "Vmax", "setting": "SV40 TAg [3]; [5]", "value": "10 ^‡ pmol/min"},
      {"measurement": "inhibition of viral replication relative to the DMSO control (plaque assay)", "setting": "SV40 [2]", "value": "~100", "unit": "fold"},
      {"measurement": "inhibition of BKV replication", "setting": "BKV", "value": "somewhat less effective"}
    ]},
    {"smiles": "O=C1C(Cl)=C(Cl)C(=O)C(Cl)=C1Cl", "note": "[chloranil]", "values": [
      {"measurement": "TAg aggregation", "setting": "SV40 TAg [4]", "value": "caused TAg to aggregate"},
      {"measurement": "potency of TAg ATPase inhibition compared with MAL2-11B", "setting": "SV40 TAg ATPase activity", "value": "significantly more potent inhibitors than MAL2-11B"}
    ]},
    {"smiles": "Oc1c(Br)cc(Cl)cc1Sc1cc(Cl)cc(Br)c1O", "note": "[6,6'-thiobis(2-bromo-4-chlorophenol)]", "values": [
      {"measurement": "inhibition of TAg ATPase activity (SAR screen)", "setting": "SV40 TAg ATPase activity", "value": "inhibited TAg ATPase activity"}
    ]},
    {"smiles": "Nc1ncnc2c1ncn2[C@@H]1O[C@H](COP(=O)(O)OP(=O)(O)O)[C@@H](O)[C@H]1O", "note": "[ADP]", "values": [
      {"measurement": "Vmax", "setting": "SV40 TAg [3]; TAg in the presence of 150 μM ADP", "value": "2.9 ^‡ pmol/min"}
    ]},
    {"smiles": "Oc1c(Cl)cc(Cl)c(Cl)c1Cc1c(O)c(Cl)cc(Cl)c1Cl", "note": "[hexachlorophene]", "values": [
      {"measurement": "inhibition of DNA replication", "setting": "SV40 [1]", "value": "~ 100 fold"},
      {"measurement": "MI50 95% confidence range based on the sigmoidal fit", "setting": "CV1 cells", "value": "29 to 71", "unit": "µM"},
      {"measurement": "MI50 (metabolic index-50)", "setting": "CV1 cells", "value": 55, "unit": "µM"},
      {"measurement": "potency of TAg ATPase inhibition compared with MAL2-11B", "setting": "SV40 TAg ATPase activity", "value": "significantly more potent inhibitors than MAL2-11B"},
      {"measurement": "inhibition at 3 µM", "setting": "SV40 TAg ATPase activity", "value": "~50", "unit": "%"},
      {"measurement": "inhibition at 30 µM", "setting": "SV40 TAg ATPase activity", "value": "~80", "unit": "%"},
      {"measurement": "Vmax", "setting": "SV40 TAg [3]; [5]", "value": "6.6 ^‡ pmol/min"},
      {"measurement": "inhibition of viral replication relative to the DMSO control (plaque assay)", "setting": "SV40 [2]", "value": "~100", "unit": "fold"},
      {"measurement": "inhibition of BKV replication", "setting": "BKV", "value": "maintained its potent inhibition"}
    ]}
  ]
}
